Data on 19 compounds can be found in patent publication US20260042743A1, “SUBSTITUTED BENZIMIDAZOLES FOR TREATING VIRAL DISEASES” (COUNCIL OF SCIENTIFIC AND INDUSTRIAL RESEARCH, priority 2022, published 2026).

Each structure is given as a SMILES string. A value given as a limit tells only on which side of the number the result lay.

This assay has as its system SARS-CoV-2. The experiment in a line: cell-based anti-viral assay using Vero E6 cell line, viral RNA by qRT-PCR. Conditions: Vero E6 cells, 48 h; for ΔCt (1 μM) / inhibition at 1 µM: 1 μM compound; for ΔCt (1 μM) / ΔCt (5 μM): increase in Ct vs no-drug control; for ΔCt (5 μM) / inhibition at 5 µM: 5 μM compound; for inhibition at 1 µM / inhibition at 5 µM: Severe acute respiratory syndrome coronavirus 2, Vero C1008, calculated from ΔCt; for inhibition at 1 µM: read-out: % SARS-CoV-2 Inactivation (1 μM); for inhibition at 5 µM: read-out: % SARS-CoV-2 Inactivation (5 μM).

As for `Cn1c(Nc2ccccc2)nc2cc(F)c(F)cc21` [Example 38, 5,6-difluoro-1-methyl-N-phenyl-1H-benzo[d]imidazol-2-amine], the “ΔCt (1 μM)” value came out at 0.4, the “ΔCt (5 μM)” value is −0.1, the inhibition at 1 µM was below 3% and the inhibition at 5 µM was below 3%.

For the compound `FC(F)(F)c1cc(Nc2nc3c(C(F)(F)F)cccc3[nH]2)cc(C(F)(F)F)c1` [Example 34, N-(3,5-bis(trifluoromethyl)phenyl)-4-(trifluoromethyl)-1H-benzo[d]imidazol-2-amine], the “ΔCt (1 μM)” value is on record as 13.1, the “ΔCt (5 μM)” value is given as 15.1, the inhibition at 1 µM was above 99.9% and the inhibition at 5 µM was 100%.

On to `FC(F)(F)Oc1ccc2nc(Nc3cccc(C(F)(F)F)c3)[nH]c2c1` [Example 30, 6-(trifluoromethoxy)-N-(3-(trifluoromethyl)phenyl)-1H-benzo[d]imidazol-2-amine], for which the “ΔCt (1 μM)” value is given as 1.1, the “ΔCt (5 μM)” value stood at 11.1, the inhibition at 1 µM was below 3% and the inhibition at 5 µM was 99.9%.

In the case of `FC(F)(F)c1ccc(Nc2nc3c(C(F)(F)F)cc(C(F)(F)F)cc3[nH]2)cc1` [Example 27, 4,6-bis(trifluoromethyl)-N-(4-(trifluoromethyl)phenyl)-1H-benzo[d]imidazol-2-amine], the “ΔCt (1 μM)” value is recorded as 1.2, the “ΔCt (5 μM)” value turned out to be 8, the inhibition at 1 µM is below 3% and the inhibition at 5 µM was above 99%.

For the compound `Fc1ccc(Nc2nc3c(C(F)(F)F)cc(C(F)(F)F)cc3[nH]2)cc1` [Example 25, N-(4-fluorophenyl)-4,6-bis(trifluoromethyl)-1H-benzo[d]imidazol-2-amine], the “ΔCt (1 μM)” value is 2, the “ΔCt (5 μM)” value was 3.6, the inhibition at 1 µM is below 3% and the inhibition at 5 µM was 90%.

With `Fc1cc2nc(Nc3cccc(C(F)(F)F)c3)[nH]c2cc1F` [Example 10, 5,6-difluoro-N-(3-(trifluoromethyl)phenyl)-1H-benzo[d]imidazol-2-amine], the “ΔCt (1 μM)” value is 2.4, the “ΔCt (5 μM)” value was 2.4, the inhibition at 1 µM was below 3% and the inhibition at 5 µM is below 3%.

Regarding `FC(F)(F)c1ccc(Nc2nc3c(C(F)(F)F)cccc3[nH]2)cc1` [Example 36, 4-(trifluoromethyl)-N-(4-(trifluoromethyl)phenyl)-1H-benzo[d]imidazol-2-amine], the “ΔCt (1 μM)” value is listed as 12, the “ΔCt (5 μM)” value is listed as 12, the inhibition at 1 µM is above 99.9% and the inhibition at 5 µM was above 99.9%.

Consider `COc1ccc(Nc2nc3c(C(F)(F)F)cc(C(F)(F)F)cc3[nH]2)cc1Br` [Example 4, N-(3-bromo-4-methoxyphenyl)-4,6-bis(trifluoromethyl)-1H-benzo[d]imidazol-2-amine], for which the “ΔCt (1 μM)” value was 2.7, the “ΔCt (5 μM)” value is 6, the inhibition at 1 µM was below 3% and the inhibition at 5 µM is above 95%.

Consider `FC(F)(F)c1cc(C(F)(F)F)c2nc(NCc3ccccc3)[nH]c2c1` [Example 6, N-benzyl-4,6-bis(trifluoromethyl)-1H-benzo[d]imidazol-2-amine], for which the “ΔCt (1 μM)” value amounted to 2, the “ΔCt (5 μM)” value worked out at 1.6, the inhibition at 1 µM was below 3% and the inhibition at 5 µM is below 3%.

For the compound `FC(F)(F)c1cc(C(F)(F)F)c2nc(NC3CCOCC3)[nH]c2c1` [Example 7, N-(tetrahydro-2H-pyran-4-yl)-4,6-bis(trifluoromethyl)-1H-benzo[d]imidazol-2-amine], the “ΔCt (1 μM)” value was 0.9, the “ΔCt (5 μM)” value was −0.32, the inhibition at 1 µM was below 3% and the inhibition at 5 µM is below 3%.

Regarding `O=S1(=O)CCC(Nc2nc3c(C(F)(F)F)cc(C(F)(F)F)cc3[nH]2)C1` (stereo not shown) [Example 20, 3-((4,6-bis(trifluoromethyl)-1H-benzo[d]imidazol-2-yl)amino)tetrahydrothiophene 1,1-dioxide], the “ΔCt (1 μM)” value is given as 1.7, the “ΔCt (5 μM)” value was found to be 3.7, the inhibition at 1 µM was below 3% and the inhibition at 5 µM is above 90%.

Take `FC(F)(F)c1cc(C(F)(F)F)c2nc(Nc3ccc4ccccc4c3)[nH]c2c1` [Example 17, N-(naphthalen-2-yl)-5,7-bis(trifluoromethyl)-1H-benzo[d]imidazol-2-amine]: the “ΔCt (1 μM)” value is given as 3, the “ΔCt (5 μM)” value came to 1.5, the inhibition at 1 µM was 90% and the inhibition at 5 µM was below 3%.

On to `Fc1cc2nc(Nc3cc(C(F)(F)F)cc(C(F)(F)F)c3)[nH]c2cc1F` [Example 11, N-(3,5-bis(trifluoromethyl)phenyl)-5,6-difluoro-1H-benzo[d]imidazol-2-amine], for which the “ΔCt (1 μM)” value stood at 5.8, the “ΔCt (5 μM)” value is on record as 10.3, the inhibition at 1 µM was above 95% and the inhibition at 5 µM is 99.9%.

For `Fc1cc2nc(Nc3ccc(C(F)(F)F)cc3)[nH]c2cc1F` [Example 12, 5,6-difluoro-N-(4-(trifluoromethyl)phenyl)-1H-benzo[d]imidazol-2-amine], the “ΔCt (1 μM)” value was 2.4, the “ΔCt (5 μM)” value turned out to be 3.5, the inhibition at 1 µM was below 3% and the inhibition at 5 µM was 90%.

Turning to `COc1ccc(Nc2nc3cc(F)c(F)cc3[nH]2)cc1Br` [Example 9, N-(3-bromo-4-methoxyphenyl)-5,6-difluoro-1H-benzo[d]imidazol-2-amine], the “ΔCt (1 μM)” value is reported as −1.1, the “ΔCt (5 μM)” value is 1, the inhibition at 1 µM is below 3% and the inhibition at 5 µM is below 3%.

On to `CC1(Nc2nc3c(C(F)(F)F)cc(C(F)(F)F)cc3[nH]2)CCC1` [Example 21, N-(1-methylcyclobutyl)-4,6-bis(trifluoromethyl)-1H-benzo[d]imidazol-2-amine], for which the “ΔCt (1 μM)” value is given as 3.6, the “ΔCt (5 μM)” value is listed as 9.3, the inhibition at 1 µM was above 90% and the inhibition at 5 µM was above 99%.

With `Cn1c(Nc2cc(C(F)(F)F)cc(C(F)(F)F)c2)nc2cc(F)c(F)cc21` [Example 39, N-(3,5-bis(trifluoromethyl)phenyl)-5,6-difluoro-1-methyl-1H-benzo[d]imidazol-2-amine], the “ΔCt (1 μM)” value is listed as 0.5, the “ΔCt (5 μM)” value was found to be 1, the inhibition at 1 µM is below 3% and the inhibition at 5 µM is below 3%.

With `FC(F)(F)c1cc(Nc2nc3ccc(C(F)(F)F)cc3[nH]2)cc(C(F)(F)F)c1` [Example 31, N-(3,5-bis(trifluoromethyl)phenyl)-6-(trifluoromethyl)-1H-benzo[d]imidazol-2-amine], the “ΔCt (1 μM)” value turned out to be 5.3, the “ΔCt (5 μM)” value is given as 9, the inhibition at 1 µM is above 95% and the inhibition at 5 µM is above 99%.

Regarding `CN(c1cc(C(F)(F)F)cc(C(F)(F)F)c1)c1nc2cccc(C(F)(F)F)c2[nH]1` [Example 44, N-(3,5-bis(trifluoromethyl)phenyl)-N-methyl-7-(trifluoromethyl)-1H-benzo[d]imidazol-2-amine], the “ΔCt (1 μM)” value is 1.4, the “ΔCt (5 μM)” value was 5, the inhibition at 1 µM was below 3% and the inhibition at 5 µM was above 95%.
